Results reported in patent US10717749B2, “Macrocyclic sulfondiimine compounds” (BAYER PHARMA AKTIENGESELLSCHAFT, priority 2015, dated 2020).

Tests used:
A2780 = assay: Proliferation assay, Cell Titer-Glo; type: cell-based; settings: Homo sapiens; A2780, 72-hour exposure; read-out: Inhibition of A2780 cell proliferation IC50
Method: (§1) MOLM-13 human acute myeloid leukemia cells (DSMZ ACC 554) and A2780, human ovarian carcinoma cells (ECACC #93112519) were seeded at a density of 5,000 cells/well (MOLM-13), or 3,000 cells/well (A2780) in a 96-well multititer plate in 150 μL of growth medium supplemented 10% fetal calf serum. After 24 hours, cell viability of one plate (zero-point plate) was determined with the Cell Titer-Glo Luminescent Cell Viability Assay (Promega), whiletest compound was added to the wells of the other plates employing HP Dispenser (final concentrations in the range of 0.0001-10 μM and DMSO controls). Cell viability was assessed after 72-hour exposure with the Cell Titer-Glo Luminescent Cell Viability Assay (Promega). IC50 values (inhibitory concentration at 50% of maximal effect) were determined by means of a 4 parameter fit on measurement data which were normalized to vehicle (DMSO) treated cells (=100%) and measurement readings taken immediately before compound exposure (=0%).

MOLM-13 = assay: Proliferation assay, Cell Titer-Glo; type: cell-based; settings: Homo sapiens; MOLM-13, 72-hour exposure; read-out: Inhibition of MOLM-13 cell proliferation IC50
Method: as §1

CDK9/CycT1 = target: T1, CDK9/CycT1 (Homo sapiens, UniProt P50750); assay: CDK9/CycT1 high ATP kinase assay (Method 1b, TR-FRET, 2 mM ATP); type: biochemical; settings: for IC50: Method 1b, 2 mM ATP; for Selectivity high ATP CDK9 over high ATP CDK2: IC50 (high ATP CDK2)/IC50 (high ATP CDK9): Methods 1b and 2b, minimal values
T1 construct: Recombinant full-length His-tagged human CDK9 and CycT1; His; purchased Invitrogen PV4131; host or cells: insect cells
Method: 1b. CDK9/CycT1 High ATP Kinase Assay
CDK9/CycT1-inhibitory activity of compounds of the present invention at a high ATP concentration after preincubation of enzyme and test compounds was quantified employing the CDK9/CycT1 TR-FRET assay as described in the following paragraphs.
Recombinant full-length His-tagged human CDK9 and CycT1, expressed in insect cells and purified by Ni-NTA affinity chromatography, were purchase from Invitrogen (Cat. No PV4131). As substrate for the kinase reaction biotinylated peptide biotin-Ttds-YISPLKSPYKISEG (C-terminus in amid form) was used which can be purchased e.g. from the company JERINI peptide technologies (Berlin, Germany). For the assay 50 nl of a 100 fold concentrated solution of the test compound in DMSO was pipetted into a black low volume 384 well microtiter plate (Greiner Bio-One, Frickenhausen, Germany), 2 μl of a solution of CDK9/CycT1 in aqueous assay buffer [50 mM Tris/HCl pH 8.0, 10 mM MgCl2, 1.0 mM dithiothreitol, 0.1 mM sodium ortho-vanadate, 0.010% (v/v) Nonidet-P40 (Sigma)] were added and the mixture was incubated for 15 min at 22° C. to allow pre-binding of the test compounds to the enzyme before the start of the kinase reaction. Then the kinase reaction was started by the addition of 3 μl of a solution of adenosine-tri-phosphate (ATP, 3.3 mM=> final conec. in the 5 μl assay volume is 2 mM) and substrate (1.67 μM=> final conc. in the 5 μl assay volume is 1 μM) in assay buffer and the resulting mixture was incubated for a reaction time of 25 min at 22° C. The concentration of CDK9/CycT1 was adjusted depending of the activity of the enzyme lot and was chosen appropriate to have the assay in the linear range, typical concentrations were in the range of 0.5 μg/mL. The reaction was stopped by the addition of 5 μl of a solution of TR-FRET detection reagents (0.2 μM streptavidine-XL665 [Cisbio Bioassays, Codolet, France] and 1 nM anti-RB(pSer807/pSer811)-antibody from BD Pharmingen [#558389] and 1.2 nM LANCE EU-W1024 labeled anti-mouse IgG antibody [Perkin-Elmer, product no. AD0077]) in an aqueous EDTA-solution (100 mM EDTA, 0.2% (w/v) bovine serum albumin in 100 mM HEPES pH 7.5).
The resulting mixture was incubated 1 h at 22° C. to allow the formation of complex between the phosphorylated biotinylated peptide and the detection reagents. Subsequently the amount of phosphorylated substrate was evaluated by measurement of the resonance energy transfer from the Eu-chelate to the streptavidine-XL. Therefore, the fluorescence emissions at 620 nm and 665 nm after excitation at 350 nm was measured in a HTRF reader, e.g. a Rubystar (BMG Labtechnologies, Offenburg, Germany) or a Viewlux (Perkin-Elmer). The ratio of the emissions at 665 nm and at […] was taken as the measure for the amount of phosphorylated substrate. The data were normalised (enzyme reaction without inhibitor=0% inhibition, all other assay components but no enzyme=100% inhibition).

B16F10 = assay: Proliferation assay, crystal violet; type: cell-based; settings: Mus musculus, B16-F10, 96 h; B16F10, 4 days; read-out: Inhibition of B16F10 cell proliferation IC50
Method: Cultivated tumour cells (HeLa, human cervical tumour cells, ATCC CCL-2; NCI—H460, human non-small cell lung carcinoma cells, ATCC HTB-177; DU 145, hormone-independent human prostate carcinoma cells, ATCC HTB-81; HeLa-MaTu-ADR, multidrug-resistant human cervical carcinoma cells, EPO-GmbH Berlin; Caco-2, human colorectal carcinoma cells, ATCC HTB-37; B16F10, mouse melanoma cells, ATCC CRL-6475) were plated at a density of 3,500 cells/well (DU145), 3,000 cells/well (HeLa-MaTu-ADR), 1,500 cells/well (NCI—H460), 3,000 cells/well (HeLa), 2,000 cells/well (Caco-2), or 1,000 cells/well (B16F10) in a 96-well multititer plate in 150 μL of their respective growth medium supplemented 10% fetal calf serum. After 24 hours, the cells of one plate (zero-point plate) were stained with crystal violet (see below), the test substances were added in various concentrations (0 μM, as well as in the range of 0.0001-10 μM) employing HP Dispenser. The cells were incubated for 4 days in the presence of test substances. Cell proliferation was determined by staining the cells with crystal violet: the cells were fixed by adding 20 μl/measuring point of an 11% glutaric aldehyde solution for 15 minutes at room temperature. After three washing cycles of the fixed cells with water, the plates were dried at room temperature. The cells were stained by adding 100 μl/measuring point of a 0.1% crystal violet solution DU 145, Caco-2, HeLa (pH 4.5) B16F10, NCI—H460, HeLa-MaTu-ADR. After three washing cycles of the stained cells with water, the plates were dried at room temperature. The dye was dissolved by adding 100 μl per measuring point of a 10% acetic acid solution. The extinction was determined by photometry at a wavelength of 595/550/620 nm depending on the intensity of coloration, usually at 595 nm. The change of cell number, in percent, was calculated by normalization of the measured values to the extinction values of the zero-point plate (=0%) and the extinction of the untreated (0 μM) cells (=100%). The IC50 values (inhibitory concentration at 50% of maximal effect) were determined by means of a 4 parameter fit.

T1 sequence (P50750 whole entry): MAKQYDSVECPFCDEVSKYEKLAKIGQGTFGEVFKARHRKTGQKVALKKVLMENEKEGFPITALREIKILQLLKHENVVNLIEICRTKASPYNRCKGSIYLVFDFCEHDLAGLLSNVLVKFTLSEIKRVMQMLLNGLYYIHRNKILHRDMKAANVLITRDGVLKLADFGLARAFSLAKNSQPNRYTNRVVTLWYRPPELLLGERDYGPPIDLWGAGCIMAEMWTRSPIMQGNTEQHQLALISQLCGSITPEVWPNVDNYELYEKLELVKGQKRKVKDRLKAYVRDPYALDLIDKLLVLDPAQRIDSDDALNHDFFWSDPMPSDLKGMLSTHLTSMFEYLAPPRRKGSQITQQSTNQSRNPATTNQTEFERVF
T1 sequence (O60563 whole entry partner): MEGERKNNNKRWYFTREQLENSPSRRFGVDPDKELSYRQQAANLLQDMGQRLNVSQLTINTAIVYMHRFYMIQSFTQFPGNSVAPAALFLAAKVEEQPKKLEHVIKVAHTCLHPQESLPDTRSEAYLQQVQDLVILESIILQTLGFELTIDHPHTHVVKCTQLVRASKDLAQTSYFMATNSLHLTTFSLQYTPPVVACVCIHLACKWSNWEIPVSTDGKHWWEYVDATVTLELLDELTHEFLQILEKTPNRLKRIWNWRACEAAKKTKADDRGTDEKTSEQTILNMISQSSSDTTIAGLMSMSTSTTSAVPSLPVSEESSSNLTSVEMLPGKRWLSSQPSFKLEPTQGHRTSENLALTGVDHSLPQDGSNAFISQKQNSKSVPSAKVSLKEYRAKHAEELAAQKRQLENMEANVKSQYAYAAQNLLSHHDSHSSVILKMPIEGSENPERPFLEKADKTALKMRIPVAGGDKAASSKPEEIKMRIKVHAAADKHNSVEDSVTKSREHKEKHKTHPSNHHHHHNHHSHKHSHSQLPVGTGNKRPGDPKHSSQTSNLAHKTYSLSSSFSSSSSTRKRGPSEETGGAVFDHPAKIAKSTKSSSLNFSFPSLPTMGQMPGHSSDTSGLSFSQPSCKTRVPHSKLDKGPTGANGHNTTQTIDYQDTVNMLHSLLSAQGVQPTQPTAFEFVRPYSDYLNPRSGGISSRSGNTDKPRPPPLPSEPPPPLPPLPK

IC50 (A2780) | IC50 (MOLM-13) | IC50 (CDK9/CycT1) | Selectivity high ATP CDK9 over high ATP CDK2: IC50 (high ATP CDK2)/IC50 (high ATP CDK9) (CDK9/CycT1) | IC50 (B16F10) | Structure (SMILES)
2.6 nM | 2 nM | 1.7 nM | 36.7 | – | CS(=N)(Cc1cc2nc(c1)OCCCOc1cc(F)ccc1-c1cc(ncc1F)N2)=NC#N (racemic) [Example 3, (rac)-[{[15,19-difluoro-3,4-dihydro-2H,11H-10,6-(azeno)-12,16-(metheno)-1,5,11,13-benzodioxadiazacyclooctadecin-8-yl]methyl}(imino)methyl-λ^6-sulfanylidene]cyanamide]
4 nM | 2.8 nM | 2 nM | 70 | 14.3 nM | CS(=N)(=N)Cc1cc2nc(c1)OCCCOc1cc(F)ccc1-c1cc(ncc1F)N2 [Example 1, 15,19-difluoro-8-[(S-methylsulfonodiimidoyl)methyl]-3,4-dihydro-2H,11H-10,6-(azeno)-12,16-(metheno)-1,5,11,13-benzodioxadiazacyclooctadecine]
18.1 nM | 4.2 nM | 1.5 nM | 252 | 50.7 nM | CS(=N)(=N)Cc1cc2nc(c1C#N)OCCCOc1cc(F)ccc1-c1cc(ncc1F)N2 [Example 8, 15,19-difluoro-8-[(S-methylsulfonodiimidoyl)methyl]-3,4-dihydro-2H,11H-10,6-(azeno)-12,16-(metheno)-1,5,11,13-benzodioxadiazacyclooctadecine-7-carbonitrile]
11.7 nM | 4.7 nM | 3.7 nM | 168 | – | CN=S(C)(=N)Cc1cc2nc(c1)OCCCOc1cc(F)ccc1-c1cc(ncc1F)N2 (racemic) [Example 4, (rac)-8-[(N,S-dimethylsulfonodiimidoyl)methyl]-15,19-difluoro-3,4-dihydro-2H,11H-10,6-(azeno)-12,16-(metheno)-1,5,11,13-benzodioxadiazacyclooctadecine]
123 nM | 113 nM | 5.9 nM | 2118 | 683 nM | CS(=N)(=N)Cc1cc2cc(c1)OCCCCOc1c(ccc(F)c1F)-c1nc(ncc1F)N2 [Example 6, 16,20,21-trifluoro-9-[(S-methylsulfonodiimidoyl)methyl]-2,3,4,5-tetrahydro-12H-13,17-(azeno)-11,7-(metheno)-1,6,12,14-benzodioxadiazacyclononadecine]
29 nM | – | 3.4 nM | 485 | – | CN=S(C)(=N)Cc1cc2cc(c1)OCCCCOc1cc(F)ccc1-c1nc(ncc1F)N2 (racemic) [Example 10, (rac)-9-[(N,S-dimethylsulfonodiimidoyl)methyl]-16,20-difluoro-2,3,4,5-tetrahydro-12H-13,17-(azeno)-11,7-(metheno)-1,6,12,14-benzodioxadiazacyclononadecine]
31.3 nM | 22.2 nM | 2.3 nM | 433 | 92.2 nM | CS(=N)(Cc1cc2cc(c1)OCCCCOc1cc(F)ccc1-c1nc(ncc1F)N2)=NC1CC1 (racemic) [Example 9, (rac)-9-[(N-cyclopropyl-S-methylsulfonodiimidoyl)methyl]-16,20-difluoro-2,3,4,5-tetrahydro-12H-13,17-(azeno)-11,7-(metheno)-1,6,12,14-benzodioxadiazacyclononadecine]
5.4 nM | 5.3 nM | 2 nM | 123 | 37.4 nM | CS(=N)(Cc1cc2nc(c1)OCCCOc1cc(F)ccc1-c1cc(ncc1F)N2)=NCCCO (racemic) [Example 2, (rac)-3-(2-{[15,19-difluoro-3,4-dihydro-2H,11H-10,6-(azeno)-12,16-(metheno)-1,5,11,13-benzodioxadiazacyclooctadecin-8-yl]methyl}-2-methyl-2λ^6-diazathia-1,2-dien-1-yl)propan-1-ol]
11.7 nM | 8.2 nM | 2.1 nM | 590 | 50.6 nM | CS(=N)(=N)Cc1cc2cc(c1)OCCCCOc1cc(F)ccc1-c1nc(ncc1F)N2 [Example 5, 16,20-difluoro-9-[(S-methylsulfonodiimidoyl)methyl]-2,3,4,5-tetrahydro-12H-13,17-(azeno)-11,7-(metheno)-1,6,12,14-benzodioxadiazacyclononadecine]
125 nM | 126 nM | – | 2132 | 784 nM | CS(=N)(=N)Cc1cc2cc(c1)OCCCCOc1c(F)cccc1-c1nc(ncc1F)N2 [Example 7, 16,21-difluoro-9-[(S-methylsulfonodiimidoyl)methyl]-2,3,4,5-tetrahydro-12H-13,17-(azeno)-11,7-(metheno)-1,6,12,14-benzodioxadiazacyclononadecine]
